Drawing on a melting point compilation (Tetko et al.; mined from patent text by program, amines drawn as free bases though some values may be those of a salt), this text covers melting point for 35 compounds.

What is called melting point is the temperature of the solid-liquid transition.

Structures are written as SMILES.

For the compound `Cc1cc(C(=O)Nc2cc(Oc3ccc4nc(NC(=O)C5CC5)cn4n3)ccc2F)n(C)n1`, the melting point amounted to 237 °C.

As to `CCOC(N)=C(C#N)C(N)=S`, the melting point was 170 to 171 °C.

In the case of `CC(=O)N(c1ccc(O)cc1)N1CCCCC1`, the melting point lay in the range of 217 to 218 °C.

`Cn1c(=O)nc(-c2ccccc2)c2cc(Cl)ccc21` came in with a melting point of 224 °C.

`Cc1ncc(C#N)c(Cl)c1I` showed a melting point of 120 to 122 °C.

For the compound `N=c1cc(NC(=S)Nc2ccccc2)nc2n1CCCS2`, the melting point was in the range of 157 to 158 °C.

For `CC(=O)Oc1c(C(C)(C)C)cc2c(c1C(C)(C)C)CC(C)(C)O2`, the melting point is 97.7 °C.

For the compound `Nc1ccc(Sc2cnc3cc(Cl)ccc3n2)cc1`, the melting point is 144 to 147 °C.

Consider `c1cc(-n2cccn2)cc(-n2cnc3cc(-c4ccoc4)ccc32)c1`, for which the melting point was 170 to 173 °C.

For `COc1ccc2c(c1)c1c(n2CCC(=O)NN)CCN(C)C1`, the melting point was 126 to 128 °C.

Take `N#Cc1cc(Br)c(OC(=O)OCOC(=O)COc2ccc(Cl)cc2Cl)c(Br)c1`: the melting point was in the range of 88 to 89 °C.

Compound `CCCCc1nc2cccc(C(=O)O)c2n1Cc1ccc(-c2ccccc2-c2nc(=S)o[nH]2)cc1` registered a melting point of 178 to 180 °C.

Turning to `O=C(Nc1ccc(OCc2ccncc2)c2ccccc12)c1cc(F)cc(N2CCCCC2)c1`, the melting point was in the range of 69 to 71 °C.

Consider `Cc1ccc(C(=O)Nc2ccc(-n3nc(C(F)(F)F)cc3C(F)(F)F)cc2)s1`, for which the melting point is 200 to 202 °C.

Turning to `Cc1ccc(-c2cn(C)cc(-c3cccc(C)c3)c2=O)cc1`, the melting point is 155 to 157 °C.

Turning to `O=C(c1ccccc1)c1c[nH]c(=O)[nH]1`, the melting point fell in the range of 329 to 330 °C.

Compound `CCC(C)Oc1ccccc1-c1nc2ccc(C(=O)O)cc2c(=O)[nH]1` (stereo not given) came in with a melting point of 242 to 244 °C.

For the compound `CN1CCN(CCCNc2ncc3c(n2)-c2ccccc2C(c2ccc(N)cc2)C3)CC1` (stereo not given), the melting point lay in the range of 75 to 77 °C.

Regarding `O=C(NCC1Cc2cccc(-c3ccc(Cl)cc3Cl)c2O1)OCc1ccccc1` (stereo not given), the melting point is 87 to 89 °C.

As to `ClCc1cnc(Cl)cc1Cl`, the melting point lay within 55 to 56 °C.

`COC(=O)C1=Cc2cc([N+](=O)[O-])ccc2N(C)CCC1`: the melting point fell in the range of 127 to 129 °C.

`C=C(C)COc1ccc(C=CC(=O)OCCCC)cc1`: the melting point lay in the range of 32 to 33 °C.

`CCOC(=O)C=Cc1ccc(OC)c(-c2cc3c(cc2OCCCCCC(=O)OC(C)(C)C)C(C)(C)CCC3(C)C)c1` returned a melting point of 130 to 132 °C.

With `CCOP(=O)(Cc1ccc(NC(=O)/C=C/c2cn(Cc3ccccc3)nc2-c2ccc(F)cc2)cc1)OCC`, the melting point is 199 to 200 °C.

`COC(=O)/C=C/c1ccc(-c2nc3c(=O)n(CC4CCCCC4)c(=O)n(CC4CCCCC4)c3[nH]2)cc1`: the melting point was above 270 °C.

Consider `CC(O)COc1cccc2oc(C(N)=O)cc(=O)c12` (stereo not given), for which the melting point was 229 to 231 °C.

In turn, `O=C(O)c1cccc2c1S(=O)(=O)c1ccccc1C2=O` registered a melting point of 237 °C.

As to `O=C(Nc1ccccc1)O[C@@H]1CN=C(c2ccc([N+](=O)[O-])cc2)O[C@H]1c1ccccc1` (racemic), the melting point stood at 148 °C.

With `CCOC(=O)c1cnc(N(Cc2cc(Br)ccc2OCc2ccccc2)C(=O)OC(C)(C)C)cn1`, the melting point is 116 to 117 °C.

In turn, `COc1c(Cl)cc(NC(=O)OCCCl)c(OC)c1[N+](=O)[O-]` displayed a melting point of 93 °C.

In the case of `CCc1nc(NC)nc2c1ncn2C1CC(F)C(CO)O1` (stereo not given), the melting point lay within 99 to 100 °C.

`O=C1c2ccccc2C(=O)N1C1CCN(Cc2ccccc2)CC1` came in with a melting point of 154 to 157 °C.

On to `COC(=O)c1ccc2ncc(C(=S)NCc3ccc(Cl)cc3)c(O)c2c1`, for which the melting point was in the range of 259 to 261 °C.

The compound `CC1=Nc2c(C)nn(C)c2C2=NCC(C)(C)N12` came in with a melting point of 280 to 283 °C.

For the compound `CC1(C(=O)C(=Cc2ccc(Cl)cc2Cl)n2cncn2)COCOC1`, the melting point was in the range of 133 to 135 °C.
